# Assay results from US20220313650A1, “METHODS FOR TREATING NEURODEVELOPMENTAL DISORDERS” (The Broad Institute, Inc., priority 2019, published 2022).
# “Also recorded” adds a separate entry of the source.
# How the values were obtained:
# WT TRN neurons = assay: Whole-cell patch-clamp rebound burst firing in acute brain slices, WT mice; type: cell-based
# Protocol: (§1) For conducting slice electrophysiology analysis, whole-cell patch-clamp recordings were performed using horizontal slices for the rebound bursting assays and angled-coronal thalamocortical slices for the synaptic optogenetics experiments (Agmon et al., 1991). 21-35 day old male C57BL6 mice and Ptchd1 Y/− (knockout) mice were used. Animals were transcardially perfused under isoflurane anesthesia with an ice-cold cutting solution (194 mM Sucrose, 30 mM NaCl, 4.5 mM KCl, 1.2 mM NaH2PO4, 10 mM Glucose, 2 mM MgCl2, 0.2 mM CaCl2, and 26 mM NaHCO3). Mice were then decapitated and the brains were carefully dissected out. Both cerebellum and olfactory bulb were removed from the brain and were placed and glued onto the stage of a Leica Vibratome with the ventral surface down and the pial surface towards the blade. 250 micron thick slices containing the TRN were then collected and recovered in regular artificial cerebrospinal fluid (aCSF; 119 mM NaCl, 2.3 mM KCl, 1 mM NaH2PO4; 11 mM Glucose, 1.3 mM MgCl2, 2.5 mM CaCl2), 26 mM NaHCO3) heated to 32° C. for 10 minutes and then at room temperature for at least 1 hr. All buffers were continuously bubbled with 95% O2/5% C02. Slices were then transferred to a submersion recording chamber where they were perfused with aCSF at a rate of 2 ml/min at room temperature. Patch recording pipettes were pulled using a Flaming/Brown micropipette puller (Sutter Instruments) and Borosilicate glass (KG33, King Precision Glass). The DC resistances were ˜4-6 MΩ. Potassium methanesulfonate based internal solution (140 mM KMeSO3; 10 mM KCl; 10 mM HEPES; 0.1 mM EGTA; 4 mM Mg-ATP; 0.2 mM Na-GTP; 10 mM hosphocreatine) was used. Neurons were visualized using infrared differential interference contrast (IR-DIC) microscopy (Olympus, BX51W1) with an upright microscope digital camera.
# The recordings were made with a microelectrode amplifier with bridge and voltage clamp modes of operation (Multiclamp 700B, Molecular Devices, San Jose, Calif., USA). Signals were low-pass filtered at 2 kHz and sampled at 10-20 kHz with a Digidata 1440A (Molecular Devices, San Jose, Calif., USA). Data were stored on a computer for subsequent off-line analysis. Cells with the series resistance (Rs, typically 8-12 MΩ) changed by >20% were excluded for data analysis. In addition, cells with Rs more than […] at any time during the recordings were discarded.
# Ptchd1 KO TRN neurons = assay: Whole-cell patch-clamp rebound burst firing in acute brain slices, Ptchd1 KO mice; type: cell-based; details: LY379268 1 μM, holding potentials −85 mV to −50 mV
# Protocol: as §1, with “Patch recording pipettes were pulled using a Flaming/Brown micropipette puller (Sutter Instruments) and Borosilicate glass (KG33, King Precision Glass). The DC resistances were ˜4-6 MΩ. Potassium methanesulfonate based internal solution (140 mM KMeSO3; 10 mM KCl; 10 mM HEPES; 0.1 mM EGTA; 4 mM Mg-ATP; 0.2 mM Na-GTP; 10 mM hosphocreatine) was used. Neurons were visualized using infrared differential interference contrast (IR-DIC) microscopy (Olympus, BX51W1) with an upright microscope digital camera.” left out
# TRN neurons = assay: Spontaneous EPSC recordings from TRN neurons, Ptchd1 KO mice; type: cell-based; details: LY379268, with PTX
# Protocol: as §1, with “Patch recording pipettes were pulled using a Flaming/Brown micropipette puller (Sutter Instruments) and Borosilicate glass (KG33, King Precision Glass). The DC resistances were ˜4-6 MΩ. Potassium methanesulfonate based internal solution (140 mM KMeSO3; 10 mM KCl; 10 mM HEPES; 0.1 mM EGTA; 4 mM Mg-ATP; 0.2 mM Na-GTP; 10 mM hosphocreatine) was used. Neurons were visualized using infrared differential interference contrast (IR-DIC) microscopy (Olympus, BX51W1) with an upright microscope digital camera.” left out
# wild type mice = assay: EEG/EMG sleep recording, WT mice; type: in vivo; details: LY379268 5 mg/kg i.p., 3 h recordings, 5 mg/kg
# Excerpt: For EEG recording studies, 8- to 12-week-old male mice with C57Bl/6J background, Ptchd1Y/− (knockout) and Ptchd1Y/+ (wild type) were deeply anesthetized with a 1% to 1.5% isoflurane. A screw electroencephalography (EEG) electrode (catalog no. 8403; Pinnacle Technology, Inc.) was implanted into the skull above the primary somatosensory cortex, S1 (AP: −1.8 and ML: +3.0 mm) using a stereotaxic device (David Kopf Instruments). A reference electrode was screwed in the occipital region of the skull and stainless steel electromyography (EMG) electrodes were placed in the nuchal muscle. All the electrodes were connected to a head-mount (catalog no. 8201-SS; Pinnacle Technology) and secured by using dental cement. The mice were allowed to recover for at least 2 weeks. Spontaneous EEG/EMG signals were recorded for 12 hours with a differential amplifier (8200-K1-SL amplifier; Pinnacle Technology). […] Data were analyzed offline using Matlab (R2016a; MathWorks). The spectral power was calculated in 0.5-Hz bins (fast Fourier transform with Hamming window) with artifact-free 4-hour EEG signals from each animal. […]
# EEG and EMG from the frontal and parietal cortex and from the nuchal muscular complex were simultaneously recorded.
# Surface electroencephalography (EEG) and electromyography (EMG) from the frontal and parietal cortex and from the nuchal muscular complex were simultaneously recorded.
compound,measurement,setting,value
"N[C@@]1(C(=O)O)COC2C(C(=O)O)C21 (stereo in doubt) [LY379268, (1R,4R,5S,6R)-4-Amino-2-oxabicyclo[3.1.0] hexane-4,6-dicarboxylic acid]","rebound burst firing, occlusion experiment",WT TRN neurons; LY379268 applied in the presence of (after pretreatment with) ML337,no change in repetitive bursting; also recorded: occluded in the presence of ML337
same,number of rebound burst firings,"WT TRN neurons; WT TRN neurons, LY379268 1 μM, after somatic hyperpolarization pulse, holding potentials −80 mV to −50 mV",significant increase in the repetitive rebound bursting; also recorded: increase in the number of rebound burst firings; also recorded: Significant changes were detected in a membrane holding potentials between −70 mV and −60 mV; also recorded: Significant changes were detected at membrane holding potentials as indicated
same,number of rebound burst firings,Ptchd1 KO TRN neurons,significantly increased the number of rebound repetitive bursting; also recorded: significantly increased the number of rebound burst firings; also recorded: Significant changes were found between −72 mV and −67 mV holding potential
same,frequency of sEPSCs,TRN neurons,significantly reduced the frequency
same,length of NREM sleep bout,wild type mice,increased non-REM sleep bout length; also recorded: increased the length of NREM sleep bout
